This note sets out measurements from ChEMBL document CHEMBL1201862, “PubChem BioAssay data set” (2004).

Common to all, as to test: NCI tumour cell line growth inhibition, 48 h
Experiment [1] concerns HCT-116.
For experiment [2], the system named is NCI-H226.
Experiment [3] has as its system NCI-H522.
The subject of experiment [4] is IGROV-1.
Experiment [5] relates to HCT-15.
The test system of experiment [6] is DLD-1.
For experiment [7], the system named is RPMI-8226.
The test system of experiment [8] is SK-OV-3.
The subject of experiment [9] is CAKI-1.
In experiment [10] the test system is K562.
Experiment [11] relates to UACC-62.
Experiment [12] has as its system TK-10.
Experiment [13] concerns SF-268.
Experiment [14] relates to COLO 205.
Experiment [15] concerns HL-60.
In experiment [16] the test system is SNB-75.
Experiment [17] deals with T47D.
Experiment [18] has as its system MDA-MB-231.
The subject of experiment [19] is PC-3.

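Tested at 5 concentrations; 48 h exposure; 96-well plates; endpoints linearly interpolated, else capped at highest concentration. GI50 is the concentration that inhibits growth by half.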 Active and inactive are the calls of the source. No stated cut-off is given here; in the data, active = GI50 up to about 1.1 µM and inactive = higher. Square brackets hold non-standard residues; d marks the D form. Peptide text beside a SMILES is read from it. * marks the point of attachment. X26 = COC1=CC(=O)N(C(=O)[C@@H](O*)C(C)C)[C@H]1Cc1ccccc1; NMeV = CN[C@H](C(=O)O)C(C)C; Hexanoyl = CCCCCC(=O)*

Take `CC1=CC(=O)N2C(OC[C@@H]2c2ccccc2)O1` (stereo not given in full): the GI50 was > 100 µM (inactive) in experiment [1]; > 100 µM (inactive) in experiment [2]; > 100 µM (inactive) in [3]; > 100 µM (inactive) in [4]; more than 100 µM in experiment [5]; > 100 µM (inactive) in experiment [6]. In addition, the GI50 in experiment [7], in experiment [8], in experiment [9], in [10], in [11] and in experiment [12] was > 100 µM (inactive) each time. Further, the GI50 in experiment [13], in [14], in [15] and in experiment [16] was > 100 µM (inactive) each time.
On to `CC1C2C=C(O)C(=O)C(C2=O)C1c1ccccc1` (stereo not given), for which the GI50 in [2] is 45.1 µM (inactive); in [3], > 100 µM (inactive); in experiment [4] it was > 100 µM (inactive); in experiment [5] it was more than 100 µM; in experiment [6], > 100 µM (inactive); in [7], > 100 µM (inactive). The GI50 in experiment [8], in experiment [9], in experiment [10], in [11], in experiment [12] and in experiment [13] was > 100 µM (inactive) throughout. The GI50 in experiment [14] was > 100 µM (inactive); in [16], 82.6 µM (inactive).
`CCCCCC(=O)N[C@H](C(=O)N[C@H](C(=O)N(C)[C@H](C(=O)N1CCC[C@H]1C(=O)N1CCC[C@H]1C(=O)O[C@H](C(=O)N1C(=O)C=C(OC)[C@@H]1Cc1ccccc1)C(C)C)C(C)C)C(C)C)C(C)C` (Hexanoyl-VV[NMeV]PP-X26): the GI50 in [1] is 48.2 µM (inactive); in [2] it was > 100 µM (inactive); in experiment [3], > 100 µM (inactive); in [4], > 100 µM (inactive); in experiment [17] it was > 100 µM (inactive); in experiment [5], more than 100 µM. Moreover, the GI50 was 34.2 µM (inactive) in [18]; 84.1 µM (inactive) in experiment [7]; > 100 µM (inactive) in experiment [8]; > 100 µM (inactive) in [9]; 71.1 µM (inactive) in experiment [10]; 82.6 µM (inactive) in experiment [11]. In addition, the GI50 is > 100 µM (inactive) in experiment [12]; > 100 µM (inactive) in [13]; > 100 µM (inactive) in experiment [14]; > 100 µM (inactive) in [15]; 19 µM (inactive) in experiment [16]; 25.2 µM (inactive) in experiment [19].
For `CCOC(=O)NC(C(=O)OCC)(N1CCN(c2cc3c(cc2F)c(=O)c(C(=O)O)cn3CC)CC1)C(F)(F)F` (stereo not given), the GI50 in [1] was > 100 µM (inactive); in experiment [2], > 100 µM (inactive); in experiment [3], > 100 µM (inactive); in experiment [4], > 100 µM (inactive); in experiment [17] it was > 100 µM (inactive); in [5], more than 100 µM. For the same compound, the GI50 in [18], in experiment [7], in experiment [8], in experiment [9], in experiment [10] and in [11] was > 100 µM (inactive) in each case. The GI50 in experiment [12], in experiment [13], in experiment [14], in experiment [15], in experiment [16] and in [19] was > 100 µM (inactive) each time.
In the case of `NCCCN1c2ccccc2Sc2ccc(Cl)cc21`, the GI50 in experiment [1] was 2.53 µM (inactive); in experiment [2], 9.95 µM (inactive); in [3], 3.2 µM (inactive); in experiment [4], > 5.43 µM (inactive); in experiment [17], > 5.36 µM (inactive); in experiment [5], 4.72 µM. The GI50 in experiment [18] is 3.33 µM (inactive); in [7], 3.95 µM (inactive); in experiment [8] it was > 6.56 µM (inactive); in experiment [9], > 8.24 µM (inactive); in experiment [10], 2.63 µM (inactive); in experiment [11] it was > 7.31 µM (inactive). Also, the GI50 in experiment [12] is 5.96 µM (inactive); in [13], 8.17 µM (inactive); in experiment [14], 1.81 µM (inactive); in experiment [15] it was 9.98 µM (inactive); in experiment [16], > 6.98 µM (inactive); in experiment [19], 4.17 µM (inactive).
Regarding `CC(C)c1cc(C(C)C)c(S(=O)(=O)N=[N+]=[N-])c(C(C)C)c1`, the GI50 in experiment [1] is > 100 µM (inactive); in experiment [2], > 100 µM (inactive); in [3], > 100 µM (inactive); in experiment [4], > 100 µM (inactive); in experiment [5], more than 100 µM; in [6], > 100 µM (inactive). Also, the GI50 in [7] was 18.7 µM (inactive); in [8], > 100 µM (inactive); in experiment [9] it was > 100 µM (inactive); in experiment [10] it was 87.5 µM (inactive); in experiment [11], > 100 µM (inactive); in experiment [12], > 100 µM (inactive). Further, the GI50 in [13] is 67.3 µM (inactive); in experiment [14], > 100 µM (inactive); in experiment [15], 22.9 µM (inactive); in [16], 23 µM (inactive).
In the case of `COc1cc2c(c(O)c1OC)C(=O)C(Cc1ccc(O)cc1)CO2` (stereo not given), the GI50 was 25.3 µM (inactive) in [1]; 37.9 µM (inactive) in experiment [2]; 3.27 µM (inactive) in experiment [3]; 35.3 µM (inactive) in [4]; 29 µM (inactive) in experiment [17]; 11.2 µM in experiment [5]. The GI50 in experiment [18] was 22.9 µM (inactive); in [7], 16.6 µM (inactive); in experiment [8], 18.4 µM (inactive); in experiment [9], 23 µM (inactive); in experiment [10], 13.1 µM (inactive); in experiment [11], 32.4 µM (inactive). The GI50 in [12] is > 100 µM (inactive); in [13] it was 32.4 µM (inactive); in [14], 73.6 µM (inactive); in experiment [15], 29.2 µM (inactive); in experiment [16], 18.4 µM (inactive); in experiment [19], 33.2 µM (inactive).
Turning to `COc1cc(/C=C/c2sc3ccccc3[n+]2C)ccc1N(C)C`, the GI50 in experiment [1] was 3.3 µM (inactive); in experiment [2] it was 22.4 µM (inactive); in experiment [3], 3.01 µM (inactive); in experiment [4] it was 7.41 µM (inactive); in experiment [17], 3.21 µM (inactive); in experiment [5], 37.2 µM. In addition, the GI50 in experiment [18] was 6.14 µM (inactive); in [7] it was 2.21 µM (inactive); in [8] it was 23.6 µM (inactive); in [9], 35.6 µM (inactive); in experiment [10], 2.1 µM (inactive); in experiment [11] it was 5.26 µM (inactive). For the same compound, the GI50 in experiment [12] is 13.2 µM (inactive); in [13], 13.8 µM (inactive); in experiment [14], 1.29 µM (inactive); in experiment [15], 6.85 µM (inactive); in experiment [16] it was > 10 µM (inactive); in [19] it was 3.24 µM (inactive).
For `COc1cccc2c(=O)oc(-c3ccccc3C)nc12`, the GI50 is 29.5 µM (inactive) in [1]; 19.5 µM (inactive) in experiment [2]; 46.9 µM (inactive) in [3]; 18.7 µM (inactive) in [4]; > 100 µM (inactive) in experiment [17]; 43.9 µM in experiment [5]. In addition, the GI50 in experiment [18] was 63.7 µM (inactive); in experiment [7], 38.2 µM (inactive); in experiment [8], > 100 µM (inactive); in experiment [9] it was 35.2 µM (inactive); in experiment [10], 39.8 µM (inactive); in experiment [11] it was 62.1 µM (inactive). For the same compound, the GI50 in [12] is > 100 µM (inactive); in experiment [13], 43.3 µM (inactive); in experiment [14], 39.8 µM (inactive); in experiment [15] it was 32 µM (inactive); in experiment [16], > 100 µM (inactive); in experiment [19] it was 35.7 µM (inactive).
As for `CN(Cc1cc(C(C)(C)C)cc(Br)c1O)Cc1cc(C(C)(C)C)cc(Br)c1O`, the GI50 is 3.05 µM (inactive) in experiment [1]; 4.18 µM (inactive) in experiment [2]; 2.84 µM (inactive) in experiment [3]; 1.72 µM (inactive) in experiment [4]; 3.5 µM (inactive) in experiment [17]; 3.12 µM in [5]. Further, the GI50 is 2.15 µM (inactive) in [18]; 2.01 µM (inactive) in [7]; 9.51 µM (inactive) in experiment [8]; 3.4 µM (inactive) in [9]; 3.13 µM (inactive) in experiment [10]; 3.13 µM (inactive) in experiment [11]. Also, the GI50 is 2.17 µM (inactive) in [12]; 3.66 µM (inactive) in experiment [13]; 12.2 µM (inactive) in [14]; 4.2 µM (inactive) in [15]; 3.66 µM (inactive) in experiment [16]; 2.96 µM (inactive) in [19].
On to `COc1cc(-c2cc(=O)c3cc4c(cc3[nH]2)OCO4)cc(OC)c1O`, for which the GI50 in experiment [1] is > 10 µM (inactive); in experiment [2], > 10 µM (inactive); in experiment [3] it was > 10 µM (inactive); in experiment [4], > 10 µM (inactive); in experiment [17] it was > 10 µM (inactive); in experiment [5], more than 10 µM. In addition, the GI50 in experiment [18], in [7], in experiment [8], in experiment [9], in experiment [10] and in [11] was > 10 µM (inactive) each time. Also, the GI50 in [12], in [13], in [14], in experiment [15], in experiment [16] and in [19] was > 10 µM (inactive) throughout.
